In patent publication US8945635B2, “Formulations comprising extracts from primitive plant species (mosses, ferns and lichens) to treat and prevent cancers” (priority 2006, dated 2015):
Where two headings read alike, the source gives them in different places.

How the values were obtained:
[1] = system: Metastatic colon cancer (SW620) MTS cells; test: Single agent treatment of metastatic colon cancer MTS cells; assay type: cell-based, human; details: 5 days, 5-fluorouracil 2.5 μM, Gemcitabine 5 μM
Protocol: Metastatic MTS colon cancer (SW620) were treated for 24 hours with extract samples 1 (moss), 2 (moss), 4 (moss), 6 (moss), 5 (moss), 7 (fern), 8 (fern), 9 (moss), all at 50 mg/mL, and for 5 days with the standard chemotherapeutics 5-fluorouracil at 2.5 μM and Gemcitabine at 5 μM.
Metastatic colon cancer (SW620) MTS cells were treated for 24 hours with extract samples 12 (moss), 13 (fern), 14 (lichen), all at 50 mg/mL, and for 5 days with the standard chemotherapeutics 5-fluorouracil at 2.5 μM and Gemcitabine at 5 μM.

[2] = system: GBM multicellular tumor spheroid (MTS) culture (ATCC crl-2020)
Excerpt: (§1) Carmustine, berberine, curcumin, caffeic acid phenyl ester (CAPE), abscisic acid and a extract sample 19 (fern) were used, singly and in various combinations, to assess their potential effectiveness in promoting in vitro cell death responses in a malignant GBM cell line (ATCC crl-2020). Two different culture models were used in these experiments. The majority of vertebrate cells cultured in vitro grow as monolayers on an artificial substrate, as is the case with GBM cells. Live cells attach to the bottom of a tissue culture plate where they proliferate until the surface is confluent with cells. […] The three dimensional structure of solid tumors makes such tumors more resistant to treatment than a GBM cell monolayer culture. To more closely approximate in vivo conditions a multi-cellular tumor spheroid (MTS) model was used. In this model GBM cells were cultured on a 1% agarose matrix in a 24 well tissue culture dish to form multi cellular aggregates. […] Trypan blue staining and microscopic observation was used to assess cell viability after treatment.
A GBM multicellular tumor spheroid (MTS) culture plate was treated with moderately low concentrations of carmustine (50 μM dose); curcumin (20 μM dose); CAPE (20 μM dose); ABA (400 μM dose) and extract sample 19 (10 mg/mL dose). The treated cultures were incubated for 24 hours at 38° C. and assayed. The dosing conditions were designed to represent sub-optimal dosing conditions.
A GBM multicellular tumor spheroid (MTS) culture plate was treated with different two agent and three agent combinations including curcumin and extract sample 13; carmustine and extract sample 13; carmustine and curcumin; and carmustine and curcumin and extract sample 13. The agent concentrations were the same as in the single agent testing (carmustine (50 μM dose); curcumin (20 μM dose); CAPE (20 μM dose); ABA (400 μM dose) and extract sample 13 (10 mg/mL dose).
The treated cultures were incubated for 24 hours at 38° C. and assayed. The dosing conditions were designed to represent sub-optimal dosing conditions.

[3] = system: GBM monolayer culture (ATCC crl-2020); details: for Viability: GBM monolayer, 12 hours at 38° C., carmustine 50 μM, curcumin 20 μM, CAPE 20 μM, ABA 400 μM, extract sample 19 10 mg/mL
Excerpt: as §1
A GBM monolayer culture plate was treated with moderately low concentrations of carmustine (50 μM dose); curcumin (20 μM dose); CAPE (20 μM dose); ABA (400 μM dose) and extract sample 19 (10 mg/mL dose). The treated cultures were incubated for 12 hours at 38° C. and assayed. The dosing conditions were sub-optimal dosing conditions designed to allow better assessment of the combined agent results.

[4] = system: Glioblastoma Multiforme (GBM); details: cited from earlier work
[5] = Table 18, standard chemotherapeutics
[6] = Table 19, standard chemotherapeutics
[7] = GBM MTS cell cultures, agent used alone
[8] = GBM monolayer cell cultures, agent used alone

Question: With `O=c1[nH]cc(F)c(=O)[nH]1` [5-fluorouracil] as the molecule, how does the “% dead cells” value [1, 5] read?
Answer: 55%

Question: What about the “% live cells” value [1, 5] of the same molecule?
Answer: 45%

Question: What about the “% dead cells” value [1, 6] of the same molecule?
Answer: 75%

Question: And the “% live cells” value [1, 6]?
Answer: 25%

Question: With `CC1=CC(=O)CC(C)(C)[C@@]1(O)/C=C/C(C)=C\C(=O)O` [ABA, abscisic acid] as the molecule, how does the “cytotoxicity of single agent in words” value [2, 7] read?
Answer: failed to produce significant cytotoxic responses

Question: And the “cytotoxicity of single agent in words” value [3, 8]?
Answer: failed to produce significant cytotoxic responses

Question: What about the Viability [3] of the same molecule?
Answer: 100%

Question: For `Nc1ccn([C@@H]2O[C@H](CO)[C@@H](O)C2(F)F)c(=O)n1` [Gemcitabine], which “% dead cells” value [1, 5] is on record?
Answer: 20%

Question: And the “% live cells” value [1, 5]?
Answer: 80%

Question: And the “% dead cells” value [1, 6]?
Answer: 95%

Question: And the “% live cells” value [1, 6]?
Answer: 5%

Question: With `O=NN(CCCl)C(=O)NCCCl` [carmustine, 1,3-bis(2-chloroethyl)-1-nitrosourea] as the molecule, how does the “cytotoxicity of single agent in words” value [2, 7] read?
Answer: only low level cytotoxicity

Question: And the “cytotoxicity of single agent in words” value [3, 8]?
Answer: only low level cytotoxicity

Question: What about the Viability [3] of the same molecule?
Answer: 100%

Question: What about the side effects ([4]; Intravenous administration) of the same molecule?
Answer: a decrease of bone marrow blood cells, lung damage and death

Question: What about the mean survival rate ([4]; applied in time release fashion to the tumor site, from 11.6 months) of the same molecule?
Answer: 13.9 months

Question: For `COc1cc(/C=C/C(=O)CC(=O)/C=C/c2ccc(O)c(OC)c2)ccc1O` [curcumin], which “cytotoxicity of single agent in words” value [2] is on record?
Answer: failed to produce significant cytotoxic responses

Question: What about the “cytotoxicity of single agent in words” value [3] of the same molecule?
Answer: failed to produce significant cytotoxic responses

Question: With caffeic acid phenyl ester [CAPE] as the molecule, how does the “cytotoxicity of single agent in words” value [2, 7] read?
Answer: failed to produce significant cytotoxic responses

Question: What about the “cytotoxicity of single agent in words” value [3, 8] of the same molecule?
Answer: failed to produce significant cytotoxic responses

Question: What about the Viability [3] of the same molecule?
Answer: 100%
